Laboratory results: patent US4927826A, “Cycloproylpropenamides useful as platelet activing factor (PAF) antagonists” (Hoffman-La Roche Inc., priority 1988, dated 1990)

What was measured:
dog platelets = assay: Binding assay: inhibition of 3H-PAF binding to dog platelets; settings: 10 minutes at room temperature
Procedure: The binding assay was done in 400 μl polyethylene microcentrifuge tubes (Beckman) containing 50 μl of an oil mixture of 2 parts Siliconol AR200 (Serva): 1 part Silicone Fluid (Arthur H. Thomas). Buffer, standards, or analogs (150 μl total volume) were added to the tubes. Radiolabelled ^3 H-PAF (50 μl) was then added to the tubes. The reaction was started by the addition of 50 μl of dog platelets (2×10^7 platelets). The tubes were capped, inverted several times to mix, and incubated for 10 minutes at room temperature. The platelets were separated from the incubation mixture by centrifuging 1 minute in a Beckman Microfuge B centrifuge. The tip of the microfuge tube was cut off, and the platelets were washed out of the tip with 200 μl of 50% methanol (Burdick and Jackson). Aquasol (NEN, 10 ml) was added and the radioactivity in the samples was determined using an LS 8100 Beckman liquid scintillation counter linked to a Techtran tape recorder. Data was processed through an in-house computer system. Alternatively, radioactivity was determined using a Searle Mark III liquid scintillation counter linked to a Iso-Data microprocessor.
(b) Preparation of Platelets
Blood was collected from anesthesized or unanesthesized dogs into 50 ml plastic centrifuge tubes containing 3.8% sodium citrate as the anticoagulant (1 volume of citrate/9 volumes of blood). The red cells were removed by centrifugation for 15 minutes at 600 rpm (100-125 g) at room temperature. An aliquot of the supernatant platelet rich plasma (PRP) was saved for cell counting and the remainder was acidified by pH 6.5 with 0.15M citric acid. The platelet pellet was obtained after a 10 minute centrifugation at 2000 rpm (1000 g) at room temperature. Washed platelets were prepared by resuspending the platelet pellet once with PBS containing 1 mM EDTA, centrifuging as noted, and then resuspending the platelets in 0.1% BSA-PBS. An aliquot of the washed platelets was counted. Platelets used for binding assays were diluted to 2×10^7 platelets/assay tube (4×10^8 platelets/ml). Platelet counting was done using a Royco Cell-Crit 921.

[1] = test system: PAF-induced Bronchoconstriction; assay: PAF Induced Bronchoconstriction Assay; assay type: in vivo; settings: guinea pig, ± standard error of the mean; for Percent Inhib. of PAF-induced Bronchoconstriction, 1 mg/Kg i.v.: 1 minute pretreatment, PAF 1.0 μg/kg i.v.; for Percent Inhib. of PAF-induced Bronchoconstriction, 50 mg/Kg p.o.: 2-hour pretreatment, PAF i.v.
Procedure: PAF Induced Bronchoconstriction Assay
Male animals (Hartlet Strain, 400-500 g) were anesthetized with urethane (2 g/kg, i.p.). Each animals' trachea was cannulated and the guinea pigs were respirated using a Harvard small animal rodent respirator (3.0 cc stroke volume, 40 breaths per min.). Tracheal pressure was recorded from a cannula inserted in the trachea and connected to a Statham Pressure Transducer.
The jugular vein was cannulated for administering compounds. Spontaneous breathing was arrested with succinylcholine (1.2 mg/kg, i.v.) administered 2 minutes prior to intravenous injection of platelet activating factor (PAF).
For, the intravenous testing, the guinea pig is given a 5-minute pretreatment with propranolol at a dose of 0.1 mg/kg intravenously. The test compound is administered with a 1 minute pretreatment prior to intravenous challenge with PAF. The animal is then challenged with a 1.0 μg/kg intravenous dose of PAF and the change is tracheal pressure is measured.
For the oral testing, the procedure includes a 2-hour pretreatment period with the test compound administered through an oral gavage tube. Propranolol or succinylcholine and PAF are administered intravenously, and the change in tracheal pressure measured.
The change is tracheal pressure is determined by subtracting the steady state baseline achieved after administration of succinylcholine from the peak bronchoconstriction seen after challenge with PAF. The mean is calculated for each test compound and compared to the mean of the control animals to give the percent inhibition of bronchoconstriction. The standard error is calculated as the standard error of the mean.

[2] = test system: PAF-induced Platelet Count Decrease; assay: PAF induced platelet count decrease; assay type: in vivo, guinea pig; settings: for Percent Inhib. of PAF-induced Platelet Count Decrease, 3 mg/Kg i.v.: guinea pig, 15 minutes after drug injection, PAF 75 ng/kg i.v.
Procedure: PAF INDUCED PLATELET COUNT DECREASE
Male Hartley guinea pigs weighing between 500 and 900 grams were fed standard guinea pig chow and tap water ad libitum. PAF was solubilized in ethanol and stored as a 2 mM stock solution at -70° C. The stock solution of PAF was diluted to 1 pM in Tris buffer pH 7.4 and 0.1% BSA for all experiments.
(a) Intravenous Procedure
Guinea pigs were anesthetized with urethane (1.6 g/kg, i.p.). A catheter (PE50) was introduced into the right carotid artery for withdrawing blood. A second catheter PE10) was introduced into the jugular vein for injecting drugs and for administering the PAF challenge (75 ng/kg, i.v.). A control blood sample was obtained and platelets were counted in a whole blood platelet analyzer. PAF was then given and blood samples were taken 15, 30, and 60 seconds after the challenge for platelet counts. Fifteen minutes later, selected concentrations of the test compound were solubilized in DMSO and injected intravenously into a group of 4-6 animals. Only one concentration of antagonist was used in each animal group. Fifteen minutes after drug injection, blood samples were taken before and 15, 30, and 60 sec after the PAF challenge, and analyzed for platelet number.
Animals were anesthetized with sodium pentobarbital (35 mg/kg, i.p.) and the caritoid artery and jugular vein were cannulated as described above. The cannulae were exteriorized at the base of the neck and the animals were allowed to recover. At least 18 hours after surgery, conscious unrestrained guinea pigs were used in the experiment. The animals were challenged two time with PAF (120 ng/kg, i.v.); the first to establish a consistent response to PAF and the second to serve as a control for the PAF challenge. Blood samples were taken before and 15, 30, and 45 seconds after PAF challenge and platelets were counted. Thirty minutes after the control PAF challenge, the animal were orally dosed with either gum acacia or the test compound. Animals were then challenged with PAF at 1, 3, 5, and 24 hours after the administration of the drug.
DATA ANALYSIS AND STATISTICS
The % change, i.e., the difference in platelet number before and after PAF challenge was calculated by: [formula]
Statistical significance (p 0.05) of the difference between the mean PAF control and mean drug treated activity was determined with paried Student's t-test.

Structure (SMILES) | IC50 (dog platelets) | Percent Inhib. of PAF-induced Bronchoconstriction, 1 mg/Kg i.v. [1] | Percent Inhib. of PAF-induced Platelet Count Decrease, 3 mg/Kg i.v. [2] | Percent Inhib. of PAF-induced Bronchoconstriction, 50 mg/Kg p.o. [1] | Percent Inhib. of PAF-induced Platelet Count Decrease, 30 mg/Kg p.o. ([2]; conscious guinea pig, 30 mg/Kg p.o., PAF 120 ng/kg i.v.)
O=C(/C=C/C1CC1(c1cccc(F)c1)c1cccc(F)c1)NCCCCc1cccnc1 (racemic) [[R,S-(E)]-3-[2,2-bis(3-Fluorophenyl)cyclopropyl]-N-[4-(3-pyridinyl)butyl]-2-propenamide] | 53 nM | 96 ± 2% | 30% | – | –
O=C(/C=C\C1CC1(c1cccc(F)c1)c1cccc(F)c1)NCCCCc1cccnc1 (racemic) [[R,S-(Z)]-3-[2,2-bis(3-Fluorophenyl)cyclopropyl]-N-[4-(3-pyridinyl)butyl]-2-propenamide] | 100 nM | – | 22% | 52 ± 28% | –
COc1cccc([C@]2(c3ccccc3)C[C@@H]2/C=C\C(=O)NCCCCc2cccnc2)c1 (relative stereo) [[1(R,S),2(R,S)-(Z)]-3-[[2-(3-Methoxyphenyl)-2-phenyl]cyclopropyl]-N-[4-(3-pyridinyl)butyl]-2-propenamide] | 300 nM | – | – | 9 ± 14% | –

The next compounds have a lower IC50 (dog platelets) than those just listed; values first:

IC50 (dog platelets) | Structure (SMILES) | Percent Inhib. of PAF-induced Bronchoconstriction, 1 mg/Kg i.v. [1] | Percent Inhib. of PAF-induced Platelet Count Decrease, 3 mg/Kg i.v. [2] | Percent Inhib. of PAF-induced Bronchoconstriction, 50 mg/Kg p.o. [1] | Percent Inhib. of PAF-induced Platelet Count Decrease, 30 mg/Kg p.o. ([2]; conscious guinea pig, 30 mg/Kg p.o., PAF 120 ng/kg i.v.)
35 nM | O=C(/C=C/[C@@H]1CC1(c1ccccc1)c1ccccc1)NCCCCc1cccnc1 [[S-(E)]-3-(2,2-Diphenylcyclopropyl)-N-[4-(3-pyridinyl)butyl]-2-propenamide] | 86 ± 7% | 44% | – | –
24 nM | O=C(/C=C/[C@@H]1CC1(c1cccc(F)c1)c1cccc(F)c1)NCCCCc1cccnc1 [[S-(E)]-3-[2,2-bis(3-Fluorophenyl)cyclopropyl]-N-[4-(3-pyridinyl)butyl]-2-propenamide] | 90 ± 4% | – | 95 ± 79% | 66%
